# Reference: patent US20230085307A1, “PYRIDAZINONE COMPOUND AND HERBICIDE” (NISSAN CHEMICAL CORPORATION, priority 2019, published 2023)
# What was measured:
# [1] = tested on: persian speedwell; assay: Test Example 5: herbicidal effect by foliage application, plastic box (Table 20, symbol R); assay type: in vivo, Persian speedwell (Veronica persica); details: foliage application, 3 weeks after application
# How it was run: (§1)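 Post-emergence foliar test in sterilized diluvial soil. Compound applied as water-diluted emulsion at a predetermined rate to 14-day-old plants; evaluation at three weeks.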
# [2] = tested on: Japanese bulrush; assay: Test Example 1: herbicidal activity, application before weed generation under submerged conditions (Table 16, symbol B); assay type: in vivo, Japanese bulrush (Schoenoplectus juncoides)
# How it was run: (§2)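 Emulsion formulation, water-diluted to set dose, was put onto the flooded surface (4 cm depth, alluvial soil) the same day weeds were sown and 2.5-leaf rice transplanted. After 3 weeks at 25-30 °C under glass, each species was rated 0 (≤5% kill) to 5 (≥90% kill).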
# [3] = tested on: false cleavers; assay: Test Example 4: herbicidal effect by soil treatment (Table 19, symbol Q); assay type: in vivo, false cleavers (Galium spurium)
# How it was run: (§3)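 Emulsion of test compound, water-diluted to predetermined amount, sprayed on soil after sowing (seed depth ~1.5 cm, sterilized diluvial soil). Greenhouse, 25–30° C. Effect graded at three weeks post-spray.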
# [4] = tested on: oval-leafed pondweed; assay: Test Example 2: herbicidal activity, application during weed generation under submerged conditions (Table 17, symbol C); assay type: in vivo, oval-leafed pondweed (Monochoria vaginalis); details: application during weed generation, submerged conditions
# How it was run: (§4)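 Steps: fill Wagner pots with alluvial soil; add water to give 4 cm depth; sow the species mixed; grow under glass at 25–30° C.; at 1–2 leaves apply water-diluted emulsion formulation to the water surface at a fixed herbicide amount; score after 3 weeks.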
# [5] = tested on: late watergrass; assay: Test Example 1: herbicidal activity, application before weed generation under submerged conditions (Table 16, symbol A); assay type: in vivo, late watergrass (Echinochloa oryzicola)
# How it was run: as §2
# [6] = tested on: barnyard grass; assay: Test Example 5: herbicidal effect by foliage application, plastic box (Table 20, symbol H); assay type: in vivo, barnyard grass (Echinochloa crus-galli); details: foliage application, 3 weeks after application
# How it was run: as §1
# [7] = tested on: rice flat sedge; assay: Test Example 3: herbicidal effect by foliage application, Wagner pot (Table 18, symbol E); assay type: in vivo, rice flat sedge (Cyperus iria)
# How it was run: (§5)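 Plants were sown in alluvial soil held under 0.1–0.5 cm standing water and grown 14 days in a greenhouse at 25–30 °C. An emulsifiable formulation, water-diluted to the set dose, was then sprayed onto the foliage, and effects were scored three weeks later using previously defined criteria.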
# [8] = tested on: late watergrass; assay: Test Example 2: herbicidal activity, application during weed generation under submerged conditions (Table 17, symbol A); assay type: in vivo, late watergrass (Echinochloa oryzicola); details: application during weed generation, submerged conditions
# How it was run: as §4
# [9] = tested on: wild oat; assay: Test Example 5: herbicidal effect by foliage application, plastic box (Table 20, symbol I); assay type: in vivo, wild oat (Avena fatua); details: foliage application, 3 weeks after application
# How it was run: as §1
# [10] = tested on: green foxtail; assay: Test Example 5: herbicidal effect by foliage application, plastic box (Table 20, symbol G); assay type: in vivo, green foxtail (Setaria viridis); details: foliage application, 3 weeks after application
# How it was run: as §1
# [11] = tested on: barnyard grass; assay: Test Example 3: herbicidal effect by foliage application, Wagner pot (Table 18, symbol H); assay type: in vivo, barnyard grass (Echinochloa crus-galli)
# How it was run: as §5
# [12] = tested on: Italian ryegrass; assay: Test Example 4: herbicidal effect by soil treatment (Table 19, symbol K); assay type: in vivo, Italian ryegrass (Lolium multiflorum)
# How it was run: as §3
# [13] = tested on: windgrass; assay: Test Example 4: herbicidal effect by soil treatment (Table 19, symbol L); assay type: in vivo, windgrass (Apera spica-venti)
# How it was run: as §3
# [14] = tested on: redroot pigweed; assay: Test Example 4: herbicidal effect by soil treatment (Table 19, symbol N); assay type: in vivo, redroot pigweed (Amaranthus retroflexus)
# How it was run: as §3
# [15] = tested on: Chinese sprangletop; assay: Test Example 3: herbicidal effect by foliage application, Wagner pot (Table 18, symbol D); assay type: in vivo, chinese sprangletop (Leptochloa chinensis)
# How it was run: as §5
# [16] = tested on: blackgrass; assay: Test Example 5: herbicidal effect by foliage application, plastic box (Table 20, symbol J); assay type: in vivo, blackgrass (Alopecurus myosuroides); details: foliage application, 3 weeks after application
# How it was run: as §1
# [17] = tested on: southern crabgrass; assay: Test Example 5: herbicidal effect by foliage application, plastic box (Table 20, symbol F); assay type: in vivo, southern crabgrass (Digitaria ciliaris); details: foliage application, 3 weeks after application
# How it was run: as §1
smiles,measurement,setting,value
CCCC(=O)Oc1c(C)nn(C)c(=O)c1-c1c(-c2ccccc2OCC)sc2ccc(F)cc12 [2-029],effect on persian speedwell (R),[1]; 266 g/ha,5 (Herbicidal rate of 90% or more (almost completely withered))
same,Herbicidal effect on B: Japanese bulrush (grade 0-5),[2]; 266 g/ha applied herbicide,0 (Herbicidal rate of 5% or less (almost no effect))
same,"herbicidal effect rating, Q: false cleavers",[3]; 266 g/ha,3 (Herbicidal rate of 40% or more and less than 70%)
same,"herbicidal effect rating, C: oval-leafed pondweed",[4]; AAH 266 g/ha,3 (Herbicidal rate of 40% or more and less than 70%)
same,Herbicidal effect on A: late watergrass (grade 0-5),[5]; 266 g/ha applied herbicide,2 (Herbicidal rate of 20% or more and less than 40%)
same,effect on barnyard grass (H),[6]; 266 g/ha,5 (Herbicidal rate of 90% or more (almost completely withered))
same,"herbicidal effect on E (rice flat sedge), rating 0-5",[7]; 266 g/ha,3 (Herbicidal rate of 40% or more and less than 70%)
same,"herbicidal effect rating, A: late watergrass",[8]; AAH 266 g/ha,3 (Herbicidal rate of 40% or more and less than 70%)
same,effect on wild oat (I),[9]; 266 g/ha,3 (Herbicidal rate of 40% or more and less than 70%)
same,effect on green foxtail (G),[10]; 266 g/ha,4 (Herbicidal rate of 70% or more and less than 90%)
same,"herbicidal effect on H (barnyard grass), rating 0-5",[11]; 266 g/ha,5 (Herbicidal rate of 90% or more (almost completely withered))
same,"herbicidal effect rating, K: Italian ryegrass",[12]; 266 g/ha,0 (Herbicidal rate of 5% or less (almost no effect))
same,"herbicidal effect rating, L: windgrass",[13]; 266 g/ha,0 (Herbicidal rate of 5% or less (almost no effect))
same,"herbicidal effect rating, N: redroot pigweed",[14]; 266 g/ha,4 (Herbicidal rate of 70% or more and less than 90%)
same,"herbicidal effect on D (Chinese sprangletop), rating 0-5",[15]; 266 g/ha,3 (Herbicidal rate of 40% or more and less than 70%)
same,effect on blackgrass (J),[16]; 266 g/ha,1 (Herbicidal rate of 5% or more and less than 20%)
same,effect on southern crabgrass (F),[17]; 266 g/ha,4 (Herbicidal rate of 70% or more and less than 90%)
CCCOc1ccc(-c2sc3ccc(F)cc3c2-c2c(O)c(C)nn(C)c2=O)cc1 [2-032],effect on persian speedwell (R),[1]; 320 g/ha,5 (Herbicidal rate of 90% or more (almost completely withered))
same,Herbicidal effect on B: Japanese bulrush (grade 0-5),[2]; 320 g/ha applied herbicide,4 (Herbicidal rate of 70% or more and less than 90%)
same,"herbicidal effect rating, Q: false cleavers",[3]; 320 g/ha,0 (Herbicidal rate of 5% or less (almost no effect))
same,"herbicidal effect rating, C: oval-leafed pondweed",[4]; AAH 320 g/ha,5 (Herbicidal rate of 90% or more (almost completely withered))
same,Herbicidal effect on A: late watergrass (grade 0-5),[5]; 320 g/ha applied herbicide,4 (Herbicidal rate of 70% or more and less than 90%)
same,effect on barnyard grass (H),[6]; 320 g/ha,5 (Herbicidal rate of 90% or more (almost completely withered))
same,"herbicidal effect on E (rice flat sedge), rating 0-5",[7]; 320 g/ha,5 (Herbicidal rate of 90% or more (almost completely withered))
same,"herbicidal effect rating, A: late watergrass",[8]; AAH 320 g/ha,1 (Herbicidal rate of 5% or more and less than 20%)
same,effect on wild oat (I),[9]; 320 g/ha,3 (Herbicidal rate of 40% or more and less than 70%)
same,effect on green foxtail (G),[10]; 320 g/ha,5 (Herbicidal rate of 90% or more (almost completely withered))
same,"herbicidal effect on H (barnyard grass), rating 0-5",[11]; 320 g/ha,5 (Herbicidal rate of 90% or more (almost completely withered))
same,"herbicidal effect rating, K: Italian ryegrass",[12]; 320 g/ha,0 (Herbicidal rate of 5% or less (almost no effect))
same,"herbicidal effect rating, L: windgrass",[13]; 320 g/ha,0 (Herbicidal rate of 5% or less (almost no effect))
same,"herbicidal effect rating, N: redroot pigweed",[14]; 320 g/ha,5 (Herbicidal rate of 90% or more (almost completely withered))
same,"herbicidal effect on D (Chinese sprangletop), rating 0-5",[15]; 320 g/ha,3 (Herbicidal rate of 40% or more and less than 70%)
same,effect on blackgrass (J),[16]; 320 g/ha,5 (Herbicidal rate of 90% or more (almost completely withered))
same,effect on southern crabgrass (F),[17]; 320 g/ha,5 (Herbicidal rate of 90% or more (almost completely withered))
